Laboratory results as given in EP2931723B1, “NEW BICYCLIC COMPOUNDS AND THEIR USE AS ANTIBACTERIAL AGENTS AND -LACTAMASE INHIBITORS” (Fedora Pharmaceuticals Inc., priority 2012, dated 2014).

What was measured:
Experiment in all cases: MIC, antibacterial and synergistic activity
Assay type in all cases: cell-based
E. coli ATCC 25922 = E. coli ATCC 25922 (Wt)
E. coli JMI 10767 [1] = conditions: E. coli JMI 10767 (Wt)
Protocol: (§1) In the Tables 10 - 12, compounds herein disclosed were tested in combination with various antibiotics against metallo β-lactamase producing bacteria. Table 3: Synergy of the inhibitor Ex. 1 (4 µg/mL) in combination with antibiotics

E. coli JMI 10768 [2] = conditions: E. coli JMI 10768 (CTX-M15 (Weak ESBL))
Protocol: as §1

E. coli JMI 10770 [3] = conditions: E. coli JMI 10770 (CTX-M15 (Hyper ESBL))
Protocol: as §1

E. coli JMI 2665 = system: E. coli JMI 2665
Protocol: as §1

E. coli JMI 2671 = system: E. coli JMI 2671
Outline: (§2)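 Each antibiotic's minimum inhibitory concentration is reported when tested alongside inhibitor at 4 µg/mL. Strains carry metallo β-lactamases.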

K. pneumo JMI 2674 [4] = conditions: K. pneumo JMI 2674 (CTX-M15 (ESBL))
Outline: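 Antibacterial activity was assessed as minimum inhibitory concentrations against a β-lactamase-producing bacterial strain. Each test inhibitor was combined with an antibiotic, with the inhibitor held at a fixed 4 µg/mL, to determine whether it acted synergistically and restored the antibiotic's effect against the resistant organism.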

K. pneumo JMI 2699 = K. pneumo JMI 2699 (VIM-1, CTX-M3)
Outline: as §2

K. pneumo JMI 4088 [5] = conditions: K. pneumo JMI 4088 (KPC-3 (Cpase))
Outline: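 The compound was tested for synergy by combining it with antibiotics and measuring minimum inhibitory concentrations against β-lactamase producing bacteria. The inhibitor was present at a fixed concentration of 4 µg/mL together with the partner antibiotic, and MIC values were recorded.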

K.pneumo JMI 4109 [6] = conditions: K.pneumo JMI 4109 (SHV-1, SHV-12)
Outline: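 Antibacterial synergy was assessed by pairing each inhibitor compound, at a constant concentration of 4 µg/mL, with β-lactam antibiotics. The combinations were run against bacterial strains that produce β-lactamases, and the readout was the minimum inhibitory concentration of the antibiotic in the presence of the inhibitor.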

K. pneumo JMI 4106 = K. pneumo JMI 4106 (KPC-3, TEM-1, SHV-12, SHV-141)
K. pneumo JMI 2681 = K. pneumo JMI 2681 (Oxa-48 (Cpase))
P. aerug JMI 149 = P. aerug JMI 149 (Bla+++D+)
E. cloacae JMI 36 = E. cloacae JMI 36 (P99)
K.pneumo JMI 4109 [7] = conditions: K.pneumo JMI 4109 (SHV-1, SHV-12); substance alone
K. pneumo JMI 2673 = K. pneumo JMI 2673 (CTX-M14 (ESBL)); substance alone
K. pneumo JMI 2674 [8] = conditions: K. pneumo JMI 2674 (CTX-M15 (ESBL)); substance alone
K. pneumo JMI 4088 [9] = conditions: K. pneumo JMI 4088 (KPC-3 (Cpase)); substance alone
P. aerug JMI 2686 = P. aerug JMI 2686 (KPC-2 (Cpase)); substance alone
E. coli JMI 10767 [10] = conditions: E. coli JMI 10767 (Wt); remark: listed apart in the source
E. coli JMI 10768 [11] = conditions: E. coli JMI 10768 (CTX-M15 (Weak ESBL)); Meropenem + inhibitor at 4 µg/mL
E. coli JMI 10770 [12] = conditions: Escherichia coli, JMI10770; E. coli JMI 10770 (CTX-M15 (Hyper ESBL)); substance alone
E. coli JMI 11103 = system: E. coli JMI 11103
[13] = Aztreonam + inhibitor at 4 µg/mL
[14] = Ceftazidime + inhibitor at 4 µg/mL
[15] = Meropenem + inhibitor at 4 µg/mL

For O=C(NO[C@H]1CCNC1)[C@@H]1CC[C@@H]2CN1C(=O)N2OS(=O)(=O)O [Ex. 1, (2S,5R)-7-Oxo-N-[(3S)-pyrrolidin-3-yloxy]-6-(sulfooxy)-1,6-diazabicyclo[3.2.1]octane-2-carboxamide], the “MIC Aztreonam + inhibitor” value (E. coli ATCC 25922; [13]) was “≤.062 µg/mL”, the “MIC Ceftazidime + inhibitor” value (E. coli ATCC 25922; [14]) was ≤0.25 µg/mL and the “MIC Meropenem + inhibitor” value (E. coli ATCC 25922; [15]) was “≤.031 µg/mL”. For the same compound, the MIC (E. coli ATCC 25922; Escherichia coli, ATCC25922, substance alone) was 8 µg/mL, the “MIC Aztreonam + inhibitor” value (E. coli JMI 10767 [1]; [13]) was “≤.062 µg/mL” and the “MIC Ceftazidime + inhibitor” value (E. coli JMI 10767 [1]; [14]) was ≤0.25 µg/mL. For the same compound, the “MIC Aztreonam + inhibitor” value (E. coli JMI 10768 [2]; [13]) was “≤.062 µg/mL”, the “MIC Ceftazidime + inhibitor” value (E. coli JMI 10768 [2]; [14]) was ≤0.25 µg/mL and the MIC (E. coli JMI 10768 [2]; Escherichia coli, JMI10768, substance alone) was 8 µg/mL. The “MIC Aztreonam + inhibitor” value (E. coli JMI 10770 [3]; [13]) was “≤.062 µg/mL”, the “MIC Ceftazidime + inhibitor” value (E. coli JMI 10770 [3]; [14]) was ≤0.25 µg/mL and the “MIC Meropenem + inhibitor” value (E. coli JMI 10770 [3]; [15]) was “≤.031 µg/mL”. The “MIC Aztreonam + inhibitor” value (E. coli JMI 2665; E. coli JMI 2665 (CMY-2 (Plasmid Cpase)), Aztreonam + inhibitor at 4 µg/mL) was “≤.062 µg/mL”, the “MIC Ceftazidime + inhibitor” value (E. coli JMI 2665; E. coli JMI 2665 (CMY-2 (Plasmid Cpase)), Ceftazidime + inhibitor at 4 µg/mL) was ≤0.25 µg/mL and the “MIC Meropenem + inhibitor” value (E. coli JMI 2665; E. coli JMI 2665 (CMY-2 (Plasmid Cpase)), Meropenem + inhibitor at 4 µg/mL) was “≤.031 µg/mL”. For the same compound, the MIC (E. coli JMI 2665; Escherichia coli, JMI2665) was 4 µg/mL, the “MIC Aztreonam + inhibitor” value (E. coli JMI 2671; E. coli JMI 2671 (VIM-19 (Cpase)), Aztreonam + inhibitor at 4 µg/mL) was “≤.062 µg/mL” and the “MIC Ceftazidime + inhibitor” value (E. coli JMI 2671; E. coli JMI 2671 (VIM-19 (Cpase)), Ceftazidime + inhibitor at 4 µg/mL) was 2 µg/mL. The “MIC Meropenem + inhibitor” value (E. coli JMI 2671; E. coli JMI 2671 (VIM-19 (Cpase)), Meropenem + inhibitor at 4 µg/mL) was 2 µg/mL, the MIC (E. coli JMI 2671; Escherichia coli, JMI2671, E. coli JMI 2671 (VIM-19 (Cpase)), substance alone) was 4 µg/mL and the “MIC Aztreonam + inhibitor” value (K. pneumo JMI 2674 [4]; [13]) was “≤.062 µg/mL”. The “MIC Ceftazidime + inhibitor” value (K. pneumo JMI 2674 [4]; [14]) was ≤0.25 µg/mL, the “MIC Meropenem + inhibitor” value (K. pneumo JMI 2674 [4]; [15]) was 0.062 µg/mL and the “MIC Aztreonam + inhibitor” value (K. pneumo JMI 2699; [13]) was 0.5 µg/mL. The “MIC Ceftazidime + inhibitor” value (K. pneumo JMI 2699; [14]) was 16 µg/mL, the “MIC Meropenem + inhibitor” value (K. pneumo JMI 2699; [15]) was 2 µg/mL and the MIC (K. pneumo JMI 2699; substance alone, read-out: MIC) was 8 µg/mL. The “MIC Aztreonam + inhibitor” value (K. pneumo JMI 4088 [5]; [13]) was “≤.062 µg/mL”, the “MIC Ceftazidime + inhibitor” value (K. pneumo JMI 4088 [5]; [14]) was ≤0.25 µg/mL and the “MIC Meropenem + inhibitor” value (K. pneumo JMI 4088 [5]; [15]) was 0.062 µg/mL. The “MIC Aztreonam + inhibitor” value (K.pneumo JMI 4109 [6]; [13]) was “≤.062 µg/mL”, the “MIC Ceftazidime + inhibitor” value (K.pneumo JMI 4109 [6]; [14]) was ≤0.25 µg/mL and the “MIC Meropenem + inhibitor” value (K.pneumo JMI 4109 [6]; [15]) was “≤.031 µg/mL”. For the same compound, the “MIC Aztreonam + inhibitor” value (K. pneumo JMI 4106; [13]) was 0.25 µg/mL, the “MIC Ceftazidime + inhibitor” value (K. pneumo JMI 4106; [14]) was ≤0.25 µg/mL and the “MIC Meropenem + inhibitor” value (K. pneumo JMI 4106; [15]) was “≤.031 µg/mL”. The MIC (K. pneumo JMI 4106; substance alone, read-out: MIC) was 16 µg/mL, the “MIC Aztreonam + inhibitor” value (K. pneumo JMI 2681; [13]) was 4 µg/mL and the “MIC Ceftazidime + inhibitor” value (K. pneumo JMI 2681; [14]) was 4 µg/mL. For the same compound, the “MIC Meropenem + inhibitor” value (K. pneumo JMI 2681; [15]) was >2 µg/mL, the MIC (K. pneumo JMI 2681; substance alone, read-out: MIC) was > 16 µg/mL and the “MIC Aztreonam + inhibitor” value (P. aerug JMI 149; [13]) was >4 µg/mL. For the same compound, the “MIC Ceftazidime + inhibitor” value (P. aerug JMI 149; [14]) was 4 µg/mL, the “MIC Meropenem + inhibitor” value (P. aerug JMI 149; [15]) was 0.5 µg/mL and the MIC (P. aerug JMI 149; substance alone, read-out: MIC) was > 16 µg/mL. The “MIC Aztreonam + inhibitor” value (E. cloacae JMI 36; [13]) was 0.25 µg/mL, the “MIC Ceftazidime + inhibitor” value (E. cloacae JMI 36; [14]) was 1 µg/mL and the “MIC Meropenem + inhibitor” value (E. cloacae JMI 36; [15]) was 0.062 µg/mL. The MIC (E. cloacae JMI 36; Enterobacter cloacae, JMI36, substance alone, read-out: MIC) was > 16 µg/mL, the MIC (K.pneumo JMI 4109 [7]) was 4 µg/mL and the MIC (K. pneumo JMI 2673) was > 16 µg/mL. For the same compound, the MIC (K. pneumo JMI 2674 [8]) was > 16 µg/mL, the MIC (K. pneumo JMI 4088 [9]) was 4 µg/mL and the MIC (P. aerug JMI 2686) was > 16 µg/mL. The “MIC Meropenem + inhibitor” value (E. coli JMI 10767 [10]; [15]) was “≤.031 µg/mL”, the MIC (E. coli JMI 10767 [10]; Escherichia coli, JMI10767, substance alone) was 8 µg/mL and the “MIC Meropenem + inhibitor” value (E. coli JMI 10768 [11]) was “≤.031 µg/mL”. For the same compound, the MIC (E. coli JMI 10770 [12]) was 8 µg/mL, the “MIC Aztreonam + inhibitor” value (E. coli JMI 11103; E. coli JMI 11103 (CTX-M15 (Intermediate ESBL)), Aztreonam + inhibitor at 4 µg/mL) was “≤.062 µg/mL” and the “MIC Ceftazidime + inhibitor” value (E. coli JMI 11103; E. coli JMI 11103 (CTX-M15 (Intermediate ESBL)), Ceftazidime + inhibitor at 4 µg/mL) was ≤0.25 µg/mL. The “MIC Meropenem + inhibitor” value (E. coli JMI 11103; E. coli JMI 11103 (CTX-M15 (Intermediate ESBL)), Meropenem + inhibitor at 4 µg/mL) was “≤.031 µg/mL” and the MIC (E. coli JMI 11103; Escherichia coli, JMI11103, E. coli JMI 11103 (CTX-M15 (Intermediate ESBL)), substance alone) was 8 µg/mL.
